Assay [1] has as its target CDK6/Cyclin D3 (Homo sapiens (Human), UniProt Q00534). The assay can be described thus: CDK6/Cyclin D3 ADP-Glo Kinase Assay. Type of assay: biochemical. The following applies: 100 uM ATP, read-out: CDK6/ CyclinD3 IC50. The method in brief:
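Recombinant human CDK6/Cyclin D3 pre-incubated 30 min with inhibitor at room temperature, then reaction started with ATP/substrate and run 90 min at room temperature. ADP formed detected by ADP-Glo luminescence; IC50 from a 4-parameter fit of fractional velocity versus inhibitor concentration.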
For orientation: ADP-Glo turns the ADP formed in a reaction into a luminescent signal.

Assay [2] addresses CDK2/Cyclin E1 full length (Homo sapiens (Human), UniProt P24941). The assay can be described thus: CDK2/Cyclin E1 Full Length ADP-Glo Kinase Assay. Type of assay: biochemical. The following applies: 20 uM ATP, read-out: CDK2/ CyclinE1 IC50. An outline of the steps: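 Full-length human CDK2/Cyclin E1 (0.328 nM) pre-incubated 30 min with inhibitor at RT, then reacted 90 min at RT with 20 uM ATP (Km 64.78 uM) and 0.75 uM substrate in pH 7.5 HEPES, 2% DMSO. ADP measured by ADP-Glo luminescence; IC50 from 4-parameter fit of fractional velocity.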

In assay [3] the test system is MCF-7 cells. Put plainly: Cell Growth Inhibition, MCF-7 (CellTiterGlo, 6 days). Type of assay: cell-based. Particulars: Homo sapiens, MCF7, 144 h; MCF-7, 6-day treatment, CellTiterGlo 2.0. The method in brief:
(§1)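 MCF-7 and OVCAR-3 cells (RPMI, 10% FBS) were seeded at 500 cells/well onto compound, typically 10–10,000 nM in half-log dilutions. Growth proceeded 6 days at 37 °C, then CellTiterGlo luminescence was read. % inhibition was taken versus control, and IC50 came from a four-parameter variable-slope fit.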
In general terms: Cellular ATP, detected with luciferase, serves as a proxy for viable cell number.

Assay [4] deals with OVCAR-3 cells. Put plainly: Cell Growth Inhibition, OVCAR-3 (CellTiterGlo, 6 days). It counts as cell-based. Particulars: Homo sapiens, 144 h; OVCAR-3, 6-day treatment, CellTiterGlo 2.0. The method in brief:
as §1

The target of assay [5] is CDK4/Cyclin D1 (Homo sapiens (Human), UniProt P11802). Put plainly: CDK4/Cyclin D1 Mobility Shift Assay (MSA). The following applies: 0.2 mM ATP, read-out: CDK4/ CyclinD1 MSA IC50. Type of assay: biochemical. An outline of the steps:
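Reaction: 2.5 nM enzyme, 0.2 mM ATP, 1.5 µM 5-FAM-Dyrktide, 10 mM MgCl2, 2 mM DTT, 2% DMSO, 50 mM HEPES pH 7.5. Inhibitor was preincubated 30 min at 22 °C, then the reaction ran 180 min before EDTA stop. Microfluidic separation of substrate and product gave % conversion, and IC50 came from a 4-parameter fit.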

For assay [6], the target named is CDK1/Cyclin B1 (Homo sapiens (Human), UniProt P06493). Put plainly: CDK1/Cyclin B1 ADP-Glo Kinase Assay. It counts as biochemical. Particulars: 80 uM ATP. The method in brief:
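CDK1/cyclin B1 (4.917 nM) preincubated 30 min with inhibitor (2% DMSO), then 80 µM ATP (Km 78.6 µM) and 0.75 µM substrate added; 90 min, room temperature, pH 7.5. ADP measured by ADP-Glo luminescence; IC50 from 4-parameter fit.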

Chain of CDK4/Cyclin D1 (P11802 whole entry): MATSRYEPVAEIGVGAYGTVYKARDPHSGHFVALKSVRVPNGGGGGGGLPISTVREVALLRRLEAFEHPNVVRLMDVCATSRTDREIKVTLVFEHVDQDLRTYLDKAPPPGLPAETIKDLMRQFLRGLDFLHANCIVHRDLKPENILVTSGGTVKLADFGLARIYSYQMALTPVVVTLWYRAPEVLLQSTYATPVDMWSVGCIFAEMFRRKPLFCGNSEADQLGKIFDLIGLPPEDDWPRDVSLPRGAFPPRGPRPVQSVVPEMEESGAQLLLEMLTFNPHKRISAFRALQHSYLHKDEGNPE
Chain of CDK4/Cyclin D1 (P24385 whole entry partner): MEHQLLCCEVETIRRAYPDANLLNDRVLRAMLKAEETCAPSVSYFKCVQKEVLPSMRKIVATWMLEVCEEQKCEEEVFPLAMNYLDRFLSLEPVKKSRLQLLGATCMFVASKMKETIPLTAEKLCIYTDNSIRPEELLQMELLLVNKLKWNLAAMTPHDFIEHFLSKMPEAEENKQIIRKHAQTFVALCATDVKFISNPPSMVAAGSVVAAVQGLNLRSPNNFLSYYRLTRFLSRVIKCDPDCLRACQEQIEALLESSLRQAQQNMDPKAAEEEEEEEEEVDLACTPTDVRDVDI
Chain of CDK6/Cyclin D3 (Q00534 whole entry): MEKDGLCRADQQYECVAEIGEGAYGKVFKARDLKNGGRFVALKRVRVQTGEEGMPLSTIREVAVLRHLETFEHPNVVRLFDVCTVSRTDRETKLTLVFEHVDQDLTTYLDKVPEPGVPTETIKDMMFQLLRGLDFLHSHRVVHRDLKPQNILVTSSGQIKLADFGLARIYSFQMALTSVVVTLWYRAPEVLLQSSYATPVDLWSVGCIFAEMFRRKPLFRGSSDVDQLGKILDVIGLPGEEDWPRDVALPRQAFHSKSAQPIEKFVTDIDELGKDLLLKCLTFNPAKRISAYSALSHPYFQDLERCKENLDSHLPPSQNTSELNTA
Chain of CDK6/Cyclin D3 (P30281 whole entry partner): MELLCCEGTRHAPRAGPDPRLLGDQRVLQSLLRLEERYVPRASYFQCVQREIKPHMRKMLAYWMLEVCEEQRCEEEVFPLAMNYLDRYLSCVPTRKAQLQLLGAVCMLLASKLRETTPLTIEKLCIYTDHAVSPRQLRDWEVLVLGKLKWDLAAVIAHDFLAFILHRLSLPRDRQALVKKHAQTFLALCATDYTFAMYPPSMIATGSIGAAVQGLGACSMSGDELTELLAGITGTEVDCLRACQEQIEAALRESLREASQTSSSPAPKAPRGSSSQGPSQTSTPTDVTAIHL
Chain of CDK1/Cyclin B1 (P06493 whole entry): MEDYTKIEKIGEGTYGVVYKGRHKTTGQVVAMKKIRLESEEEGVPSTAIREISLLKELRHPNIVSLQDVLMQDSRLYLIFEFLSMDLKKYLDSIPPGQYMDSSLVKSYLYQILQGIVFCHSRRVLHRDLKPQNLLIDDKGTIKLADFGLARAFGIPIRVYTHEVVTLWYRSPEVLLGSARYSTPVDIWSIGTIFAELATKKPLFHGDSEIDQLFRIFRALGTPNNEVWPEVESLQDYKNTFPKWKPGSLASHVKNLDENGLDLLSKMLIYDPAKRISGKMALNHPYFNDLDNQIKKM
Chain of CDK1/Cyclin B1 (P14635 whole entry partner): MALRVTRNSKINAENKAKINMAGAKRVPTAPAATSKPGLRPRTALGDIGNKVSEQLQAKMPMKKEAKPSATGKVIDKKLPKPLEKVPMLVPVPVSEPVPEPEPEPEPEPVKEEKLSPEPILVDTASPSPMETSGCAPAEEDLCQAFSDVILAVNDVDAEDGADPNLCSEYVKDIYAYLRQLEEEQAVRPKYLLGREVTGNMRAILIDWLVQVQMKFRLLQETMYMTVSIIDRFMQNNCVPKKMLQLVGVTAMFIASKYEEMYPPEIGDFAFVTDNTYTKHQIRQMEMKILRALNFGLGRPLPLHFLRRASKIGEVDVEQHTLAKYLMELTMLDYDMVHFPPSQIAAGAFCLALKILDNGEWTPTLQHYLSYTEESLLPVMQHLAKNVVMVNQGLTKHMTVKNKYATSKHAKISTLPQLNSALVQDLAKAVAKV

With `CC(=O)N1CCC2(CCN(c3cccc4cnc(Nc5ccc6c(c5)CCN(C)C6)nc34)C2)C1` (stereo not drawn) [Example 38, 1-(7-(2-((2-methyl-1,2,3,4-tetrahydroisoquinolin-6-yl)amino)quinazolin-8-yl)-2,7-diazaspiro[4.4]nonan-2-yl)ethan-1-one], the IC50 in assay [1] was 200 to 500 nM; in assay [2] it was 200 to 500 nM; in assay [3], 500 to 2000 nM; in assay [4] it was 500 to 2000 nM; in assay [5] it was < 200 nM; in assay [6], > 2000 nM.
For `CS(=O)(=O)N1CCC(Nc2ncc3cccc(N4CCC5(CNC5)C4)c3n2)CC1` [Example 15, N-(1-(methylsulfonyl)piperidin-4-yl)-8-(2,6-diazaspiro[3.4]octan-6-yl)quinazolin-2-amine], the IC50 in assay [1] was 200 to 500 nM; in assay [2], < 200 nM; in assay [3] it was 200 to 500 nM; in assay [4], 500 to 2000 nM; in assay [5], < 200 nM; in assay [6], 200 to 500 nM.
For the molecule `CS(=O)(=O)N1CCC(Nc2ncc3cccc(N4CCC5(CCOCC5)C4)c3n2)CC1` [Example 26, N-(1-(methylsulfonyl)piperidin-4-yl)-8-(8-oxa-2-azaspiro[4.5]decan-2-yl)quinazolin-2-amine], the IC50 was < 200 nM in assay [1]; < 200 nM in assay [2]; > 2000 nM in assay [3]; > 2000 nM in assay [4]; < 200 nM in assay [5]; 500 to 2000 nM in assay [6].
Take `CC(=O)N1CCC2(CCN(c3cc(C(F)F)cc4cnc(Nc5cnn(C(C)C)c5)nc34)C2)C1` (stereo not drawn) [Example 52, 1-(7-(6-(difluoromethyl)-2-((1-isopropyl-1H-pyrazol-4-yl)amino)quinazolin-8-yl)-2,7-diazaspiro[4.4]nonan-2-yl)ethan-1-one]: the IC50 in assay [1] was 500 to 2000 nM; in assay [2], 500 to 2000 nM; in assay [3], 200 to 500 nM; in assay [4], 500 to 2000 nM; in assay [5], < 200 nM; in assay [6], 500 to 2000 nM.

Values taken from patent US20240092761A1, “QUINAZOLINE COMPOUNDS AND METHODS OF USE” (IAMBIC THERAPEUTICS, INC., priority 2022, published 2024).
